Measured values from patent publication US20190110981A1, “Cannabinoid Patch” (LIFE TECH GLOBAL, LLC, priority 2017, published 2019).

Columns and labels:
[1] = In vitro transdermal flux, human cadaver skin and Franz diffusion cell; assay type: in vitro ADME; details: for Flux over the course of about 20 hours: monolithic PIB patch with oil containing CBD/THC 1:1, Franz diffusion cell (FIG. 3)
Excerpt: FIG. 1. In vitro cumulative flux (micrograms/cm^2) of cannabidiol (CBD) through skin versus time (hours).
FIG. 2. In vitro flux of tetrahydrocannabinol (THC) from ethanol/water, at each of the indicated ratios of ethanol/water.
The disclosure provides a graph of transdermal flux (FIG. 3). […] Alternatively, the oil contains CBD/THC in a 1:1 ratio (wt./wt.).
The following concerns reservoir patches. The composition inside the reservoir can have the consistency of a paste, but in an alternative embodiment, it can have the consistency of an oil, or it can have the consistency of a liquid, or it can have the consistency of a slurry. Parameters for FIG. 2 are as follows. Flux was allowed to occur for 24 hours, and FIG. 2 provides the value at 24 hours, […] The layers are 30 cm square and the hydrogel is one cm cubed or one milliliter. The layers have microporous membrane with […] pore size. The layers have occlusive heat seal around edges. There is a protective release liner. The embodiment can be made with or without silicone adhesive.

[2] = as measured at room temperature; cited from earlier work

| SMILES | Flux over the course of about 20 hours ([1]; human cadaver skin) | pKa [2] | Effect of enhancer on transdermal delivery of CBD from PIB [1] | further results |
| --- | --- | --- | --- | --- |
| C=C(C)[C@@H]1CCC(C)=C[C@H]1c1c(O)cc(CCCCC)cc1O [CBD, cannabidiol] | at least 4 micrograms per cm^2 |  |  | Flux of CBD from matrix with hemp oil of 92% CBD relative to adhesive matrix with crystalline CBD ([1]; PIB monolithic patch, 15% CBD oil vs 15% crystalline CBD (FIG. 1)): about 5 times; Cumulative flux of CBD ([1]; over ten hours, dermal patch with PIB and about 15% CBD oil, human cadaver skin, Franz diffusion cell): at least 20 micrograms CBD per cm^2 |
| O=S(=O)(O)CCNC1CCCCC1 [CHES] |  | 9.5 |  |  |
| O=S(=O)(O)CCN1CCN(CCS(=O)(=O)O)CC1 [PIPES] |  | 6.8 |  |  |
| CCCCCc1cc(O)c2c(c1)OC(C)(C)[C@@H]1CCC(C)=C[C@@H]21 [THC, delta-9-tetrahydrocannabinol] | at least 1.0 micrograms per cm^2 |  |  | THC flux by solvent in reservoir patch ([1]; THC oil mixed with ethanol and with EtOH/water of different ratios): highest flux from pure ethanol; THC flux from ethanol in reservoir patch relative to monolithic patch ([1]; reservoir patch, THC oil mixed with ethanol (FIG. 2)): 4 times; Cumulative flux of THC ([1]; reservoir patch, saturated ethanol/water about 60/40 with 25% THC oil, value at 24 hours (FIG. 2)): at least 50 micrograms THC per cm^2 |
| CCCCCCCCCCCCN1CCCCCC1=O [azone, 1-dodecylazacycloheptane-2-one] |  |  | double |  |
| CCCCCCCC/C=C\CCCCCCCC(=O)O [oleic acid] |  |  | double |  |
